Source: ChEMBL document CHEMBL1201862, “PubChem BioAssay data set” (2004)
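Following 48 hours of exposure in 96-well plates, responses at five concentrations were used to interpolate endpoints linearly. Here, GI50 denotes the concentration required for 50% inhibition of growth.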 Activity calls are given as the source filed them. Cut-off read from the data, not from the text of the source: active = GI50 up to about 1.1 µM and inactive = higher.

Assays:
Experiment in all cases: inhibition of tumour cell growth, NCI panel, 48 h
786-0 = system: 786-0
A498 = system: A498
A549 = system: A549
ACHN = system: ACHN
BT-549 = system: BT-549
CAKI-1 = system: CAKI-1
CCRF-CEM = system: CCRF-CEM
COLO 205 = system: COLO 205
DU-145 = system: DU-145
EKVX = system: EKVX
HCC 2998 = system: HCC 2998
HCT-116 = system: HCT-116
HCT-15 = system: HCT-15
HL-60 = system: HL-60
HOP-62 = system: HOP-62
HOP-92 = system: HOP-92
HT-29 = system: HT-29
Hs-578T = system: Hs-578T
IGROV-1 = system: IGROV-1
K562 = system: K562
KM12 = system: KM12
LOX IMVI = system: LOX IMVI
M14 = system: M14
MCF7 = system: MCF7
MDA-MB-231 = system: MDA-MB-231
MDA-MB-435 = system: MDA-MB-435
MDA-N = system: MDA-N
MOLT-4 = system: MOLT-4
NCI-H226 = system: NCI-H226
NCI-H23 = system: NCI-H23
NCI-H460 = system: NCI-H460
NCI-H522 = system: NCI-H522
NCI/ADR-RES = system: NCI/ADR-RES
OVCAR-3 = system: OVCAR-3
OVCAR-4 = system: OVCAR-4
OVCAR-5 = system: OVCAR-5
OVCAR-8 = system: OVCAR-8
PC-3 = system: PC-3
RPMI-8226 = system: RPMI-8226
SF-268 = system: SF-268
SF-295 = system: SF-295
SF-539 = system: SF-539
SK-MEL-28 = system: SK-MEL-28
SK-MEL-2 = system: SK-MEL-2
SK-MEL-5 = system: SK-MEL-5
SK-OV-3 = system: SK-OV-3
SN12C = system: SN12C
SNB-19 = system: SNB-19
SNB-75 = system: SNB-75
SW-620 = system: SW-620
T47D = system: T47D
TK-10 = system: TK-10
U-251 = system: U-251
UACC-257 = system: UACC-257
UACC-62 = system: UACC-62
UO-31 = system: UO-31

With `C[C@H]1C(=O)O[C@@H]2CCN3CC=C(COC(=O)[C@](C)(O)[C@@]1(C)O)[C@H]23` the GI50 (786-0) was > 100 µM (inactive), the GI50 (A498) was > 100 µM (inactive) and the GI50 (A549) was > 100 µM (inactive). The GI50 (ACHN) was > 100 µM (inactive), the GI50 (BT-549) was > 100 µM (inactive) and the GI50 (CAKI-1) was > 100 µM (inactive). For the same molecule, the GI50 (CCRF-CEM) was > 100 µM (inactive), the GI50 (COLO 205) was > 100 µM (inactive) and the GI50 (DU-145) was > 100 µM (inactive). The GI50 (EKVX) was > 100 µM (inactive), the GI50 (HCC 2998) was > 100 µM (inactive) and the GI50 (HCT-116) was > 100 µM (inactive). The GI50 (HCT-15) was > 100 µM, the GI50 (HL-60) was > 100 µM (inactive) and the GI50 (HOP-62) was > 100 µM (inactive). The GI50 (HOP-92) was > 100 µM (inactive), the GI50 (HT-29) was > 100 µM (inactive) and the GI50 (Hs-578T) was > 100 µM (inactive). For the same molecule, the GI50 (IGROV-1) was > 100 µM (inactive), the GI50 (K562) was > 100 µM (inactive) and the GI50 (KM12) was > 100 µM (inactive). For the same molecule, the GI50 (LOX IMVI) was > 100 µM (inactive), the GI50 (M14) was > 100 µM (inactive) and the GI50 (MCF7) was > 100 µM (inactive). For the same molecule, the GI50 (MDA-MB-231) was > 100 µM (inactive), the GI50 (MDA-MB-435) was > 100 µM (inactive) and the GI50 (MDA-N) was > 100 µM (inactive). The GI50 (MOLT-4) was > 100 µM (inactive), the GI50 (NCI-H226) was > 100 µM (inactive) and the GI50 (NCI-H23) was > 100 µM (inactive). For the same molecule, the GI50 (NCI-H460) was > 10 µM (inactive), the GI50 (NCI-H522) was > 100 µM (inactive) and the GI50 (NCI/ADR-RES) was > 100 µM (inactive). For the same molecule, the GI50 (OVCAR-3) was > 100 µM (inactive), the GI50 (OVCAR-4) was > 100 µM (inactive) and the GI50 (OVCAR-5) was > 100 µM (inactive). The GI50 (OVCAR-8) was > 100 µM (inactive), the GI50 (PC-3) was > 100 µM (inactive) and the GI50 (RPMI-8226) was > 100 µM (inactive). For the same molecule, the GI50 (SF-268) was > 100 µM (inactive), the GI50 (SF-295) was > 100 µM (inactive) and the GI50 (SF-539) was > 100 µM (inactive). For the same molecule, the GI50 (SK-MEL-28) was > 100 µM (inactive), the GI50 (SK-MEL-2) was > 100 µM (inactive) and the GI50 (SK-MEL-5) was > 100 µM (inactive). For the same molecule, the GI50 (SK-OV-3) was > 100 µM (inactive), the GI50 (SN12C) was > 100 µM (inactive) and the GI50 (SNB-19) was > 100 µM (inactive). The GI50 (SNB-75) was > 100 µM (inactive), the GI50 (SW-620) was > 100 µM (inactive) and the GI50 (T47D) was > 100 µM (inactive). For the same molecule, the GI50 (TK-10) was > 100 µM (inactive), the GI50 (U-251) was > 100 µM (inactive) and the GI50 (UACC-257) was > 100 µM (inactive). For the same molecule, the GI50 (UACC-62) was > 100 µM (inactive) and the GI50 (UO-31) was > 100 µM (inactive).
